We go through 1 compound from paper PMC6934184, “Selective DNA-PKcs inhibition extends the therapeutic index of localized radiotherapy and chemotherapy” (The Journal of Clinical Investigation, 2019).

In this test the target is T1, PIM2 (Homo sapiens, UniProt Q9P1W9).
T1 construct: purchased Thermo Fisher Scientific (Life Technologies) SelectScreen
Nature of the test: SelectScreen Z'LYTE. The class given is biochemical. An outline of the steps: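 NU5455 was profiled across the SelectScreen Broad panel of kinase activity and binding assays. Z'LYTE reactions such as CSF1R ran at apparent Km ATP, while the Adapta CAMK1 assay used ATP listed as 10. Values are given as percent.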

Each structure is given as a SMILES string.

T1 sequence (Q9P1W9 whole entry): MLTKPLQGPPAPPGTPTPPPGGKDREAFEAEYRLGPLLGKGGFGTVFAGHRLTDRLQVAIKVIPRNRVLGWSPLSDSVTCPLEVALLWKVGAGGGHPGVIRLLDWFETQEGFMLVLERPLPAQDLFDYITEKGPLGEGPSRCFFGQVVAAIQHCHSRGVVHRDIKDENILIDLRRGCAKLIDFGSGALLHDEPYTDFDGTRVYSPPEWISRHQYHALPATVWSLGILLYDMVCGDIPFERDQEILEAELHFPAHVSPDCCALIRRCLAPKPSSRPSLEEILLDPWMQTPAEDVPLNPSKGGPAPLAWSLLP

In general, inhibition refers to the drop in the measured response relative to a control, in per cent. In the case of `CN(C(=O)CN1CCOCC1)c1ccc2sc3c(-c4cccc5c(=O)cc(N6CC7CCC(C6)O7)oc45)cccc3c2c1` [NU5455], the inhibition at 1 µM is -4.3%.
